Where “and” joins values, the source holds several entries; their conditions need not be identical. Identical values can stand only once.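 Step 1: Grow cells in 96-well plates. Step 2: Expose to compound for 48 hours at 5 concentrations. Step 3: Interpolate endpoints linearly; if unreached, use highest concentration. At the GI50, growth is halved. At the TGI there is no net growth.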

In the first assay the test system is NCI/ADR-RES ovarian. The experiment in a line: inhibition of tumour cell growth, NCI panel, 48 h.
Take `COc1ccc(C(=O)/C=C/c2ccc(Cl)cc2)cc1S(=O)(=O)Nc1c(N)nc(SC)[nH]c1=O`: the GI50 is 40.1 µM and the TGI was over 100 µM.

On to `CN(C)c1ccc2nc3ccc(=[N+](C)C)cc-3oc2c1`, for which the GI50 was 12.1 µM and the TGI was determined as 97.9 µM.

The molecule `O=C(O)CSSCC(=O)O` gave a TGI of over 100 µM.

Take `COc1cccc(C2=C(c3cn(C)c4ccccc34)C(=O)NC2=O)c1`: the GI50 is 8.43 µM and the TGI is over 25 µM.

As for `CSc1nnc(CCSc2ccnc3c(C(F)(F)F)cccc23)o1`, the GI50 was 72.2 µM and the TGI was over 100 µM.

Take `COc1ccc(Cn2nc(-c3cc(OC)c(OC)c(OC)c3)c3c2CCc2cnoc2-3)cc1OC`: the GI50 is 3.02 µM and the TGI stood at 21.5 µM.

As for `Fc1ccc(-c2nc3n(c2-c2ccncc2)CCS3)cc1`, the GI50 is over 25 µM and the TGI was over 25 µM.

As for `C=C(C)[C@@H]1CC=C(CO)CC1`, the TGI is over 10 µM.

As for `N#Cc1ncc(/N=C/c2ccc(N(CCCl)CCCl)cc2)s1`, the GI50 was 7.36 µM and the TGI was over 100 µM.

Another assay concerns HCC-2998 colon. The experiment in a line: inhibition of tumour cell growth, NCI panel, 48 h.
With `COc1ccc(C(=O)/C=C/c2ccc(Cl)cc2)cc1S(=O)(=O)Nc1c(N)nc(SC)[nH]c1=O`, the GI50 was 1.92 µM and the TGI worked out at 3.53 µM.

For the molecule `CN(C)c1ccc2nc3ccc(=[N+](C)C)cc-3oc2c1`, the GI50 was 3.56 µM and the TGI was over 100 µM.

For `O=C(O)CSSCC(=O)O`, the TGI is over 100 µM.

Regarding `COc1cccc(C2=C(c3cn(C)c4ccccc34)C(=O)NC2=O)c1`, the GI50 is over 22.1 µM and the TGI is over 25 µM.

For the molecule `CSc1nnc(CCSc2ccnc3c(C(F)(F)F)cccc23)o1`, the GI50 is 64.8 µM and the TGI was over 100 µM.

`COc1ccc(Cn2nc(-c3cc(OC)c(OC)c(OC)c3)c3c2CCc2cnoc2-3)cc1OC`: the GI50 is 5.85 µM and the TGI was over 100 µM.

Regarding `Fc1ccc(-c2nc3n(c2-c2ccncc2)CCS3)cc1`, the GI50 is over 25 µM and the TGI was over 25 µM.

Consider `C=C(C)[C@@H]1CC=C(CO)CC1`, for which the GI50 was over 10 µM; the TGI is > 10 µM and 1460 µM.

Turning to `N#Cc1ncc(/N=C/c2ccc(N(CCCl)CCCl)cc2)s1`, the GI50 was 23.9 µM and the TGI is over 100 µM.

For another assay, the system named is CCRF-CEM leukemia. In words: inhibition of tumour cell growth, NCI panel, 48 h.
Consider `COc1ccc(C(=O)/C=C/c2ccc(Cl)cc2)cc1S(=O)(=O)Nc1c(N)nc(SC)[nH]c1=O`, for which the GI50 is 2.66 µM and the TGI is 8.97 µM.

In the case of `CN(C)c1ccc2nc3ccc(=[N+](C)C)cc-3oc2c1`, the GI50 was 1.21 µM and the TGI was determined as 32.2 µM.

As to `O=C(O)CSSCC(=O)O`, the TGI was over 100 µM.

Turning to `COc1cccc(C2=C(c3cn(C)c4ccccc34)C(=O)NC2=O)c1`, the GI50 is 9.01 µM and the TGI is over 25 µM.

With `CSc1nnc(CCSc2ccnc3c(C(F)(F)F)cccc23)o1`, the GI50 is 67.9 µM and the TGI was over 100 µM.

Take `COc1ccc(Cn2nc(-c3cc(OC)c(OC)c(OC)c3)c3c2CCc2cnoc2-3)cc1OC`: the GI50 was 3.17 µM and the TGI was over 100 µM.

For `Fc1ccc(-c2nc3n(c2-c2ccncc2)CCS3)cc1`, the GI50 was over 25 µM and the TGI was over 25 µM.

Turning to `C=C(C)[C@@H]1CC=C(CO)CC1`, the GI50 was over 10 µM; the TGI was > 10 µM and 440 µM.

In the case of `N#Cc1ncc(/N=C/c2ccc(N(CCCl)CCCl)cc2)s1`, the GI50 was 16 µM and the TGI is over 100 µM.

The test system of another assay is SF-539 CNS. In words: inhibition of tumour cell growth, NCI panel, 48 h.
In the case of `COc1ccc(C(=O)/C=C/c2ccc(Cl)cc2)cc1S(=O)(=O)Nc1c(N)nc(SC)[nH]c1=O`, the GI50 was 2.1 µM and the TGI stood at 5 µM.

In the case of `CN(C)c1ccc2nc3ccc(=[N+](C)C)cc-3oc2c1`, the GI50 is 0.707 µM and the TGI amounted to 15.4 µM.

The molecule `O=C(O)CSSCC(=O)O` returned a TGI of over 100 µM.

For `COc1cccc(C2=C(c3cn(C)c4ccccc34)C(=O)NC2=O)c1`, the GI50 is 16.5 µM and the TGI was over 25 µM.

On to `CSc1nnc(CCSc2ccnc3c(C(F)(F)F)cccc23)o1`, for which the GI50 is 60.6 µM and the TGI is over 100 µM.

Turning to `COc1ccc(Cn2nc(-c3cc(OC)c(OC)c(OC)c3)c3c2CCc2cnoc2-3)cc1OC`, the GI50 is 3.11 µM and the TGI was found to be 36.1 µM.

Consider `Fc1ccc(-c2nc3n(c2-c2ccncc2)CCS3)cc1`, for which the GI50 is over 25 µM and the TGI was over 25 µM.

As to `C=C(C)[C@@H]1CC=C(CO)CC1`, the GI50 was over 10 µM; the TGI was > 10 µM and 1120 µM.

As to `N#Cc1ncc(/N=C/c2ccc(N(CCCl)CCCl)cc2)s1`, the GI50 was 16.8 µM and the TGI is over 100 µM.

Another assay concerns IGROV1 ovarian. The experiment in a line: inhibition of tumour cell growth, NCI panel, 48 h.
As for `COc1ccc(C(=O)/C=C/c2ccc(Cl)cc2)cc1S(=O)(=O)Nc1c(N)nc(SC)[nH]c1=O`, the GI50 was 3.25 µM and the TGI came to 11.9 µM.

Take `CN(C)c1ccc2nc3ccc(=[N+](C)C)cc-3oc2c1`: the GI50 was 1.86 µM and the TGI amounted to 5.01 µM.

Turning to `O=C(O)CSSCC(=O)O`, the TGI was over 100 µM.

With `COc1cccc(C2=C(c3cn(C)c4ccccc34)C(=O)NC2=O)c1`, the GI50 is 21.8 µM and the TGI was over 25 µM.

For the molecule `CSc1nnc(CCSc2ccnc3c(C(F)(F)F)cccc23)o1`, the GI50 is 83.2 µM and the TGI was over 100 µM.

For the molecule `COc1ccc(Cn2nc(-c3cc(OC)c(OC)c(OC)c3)c3c2CCc2cnoc2-3)cc1OC`, the GI50 was 7.28 µM and the TGI was over 100 µM.

Turning to `Fc1ccc(-c2nc3n(c2-c2ccncc2)CCS3)cc1`, the GI50 is over 25 µM and the TGI was over 25 µM.

For `C=C(C)[C@@H]1CC=C(CO)CC1`, the GI50 was over 10 µM; the TGI is > 10 µM and 1260 µM.

Regarding `N#Cc1ncc(/N=C/c2ccc(N(CCCl)CCCl)cc2)s1`, the GI50 was 40.4 µM and the TGI is over 100 µM.

The values are drawn from PubChem BioAssay (NCI).
